Values of other authors, collected in US9889132B2, “Pharmaceutical compositions for the treatment of psoriasis” (Special Product's Line S.p.A., priority 2014, dated 2018).

COc1cc(Nc2nc(C)cc(C)n2)cc(OC)c1OC [4,6-dimethyl-N-(3,4,5-trimethoxyphenyl)pyrimidin-2-amine]
LD50 i.p. (mouse; i.p.): 780 mg/kg | LD50 per os (mouse; per os): 4110 mg/kg | antimitotic action (mammal cells): considerable antimitotic action
